Experimental data taken from DBAASP.
Converted amounts (≈) assume the structure as drawn.

Assays:
Test in all cases: ≥ marks a high value that may be exact or a test limit, other limits are often not marked, values filed in µg/mL are converted to µM
[1] = system: Staphylococcus epidermidis ATCC 35984
[2] = system: Pseudomonas aeruginosa ATCC 27853
[3] = system: Staphylococcus aureus ATCC 25923
[4] = system: Staphylococcus aureus ATCC 33591
[5] = system: Pseudomonas aeruginosa ATCC 10145
[6] = system: Candida albicans ATCC 10231
[7] = system: Cryptococcus neoformans ATCC 32045
[8] = system: Escherichia coli ATCC 2592
[9] = system: Pseudomonas syringae pv. syringae EPS 94
[10] = system: Xanthomonas campestris pv. Vesicatoria 2133-2
[11] = system: Erwinia amylovora PMV 6076
[12] = system: Salmonella enterica subsp. enterica serovar Typhimurium ATCC 14028
[13] = system: Escherichia coli K88
[14] = system: Escherichia coli K99
[15] = system: Candida parapsilosis CGMCC 2.3989
[16] = system: Escherichia coli 078
[17] = system: Salmonella enterica subsp. enterica serovar Pullorum ATCC 7913
[18] = system: Staphylococcus epidermidis ATCC 12228
[19] = system: Salmonella enterica subsp. enterica serovar Typhimurium C77-31
[20] = system: Candida albicans CGMCC 2.2086
[21] = system: Candida tropicalis CGMCC 2.1975
[22] = system: Staphylococcus aureus ATCC 43300
[23] = system: Escherichia coli UB1005
[24] = system: Staphylococcus aureus ATCC 29213
[25] = system: Escherichia coli K12 MG1655

Row | Compound | MIC [2] [µM] | MIC [3] [µM] | MIC [4] [µM] | MIC [9] [µM] | MIC [10] [µM] | MIC [11] [µM] | MIC [12] [µM] | MIC [13] [µM] | MIC [14] [µM] | MIC [15] [µM] | MIC [16] [µM] | MIC [17] [µM] | MIC [18] [µM] | MIC [19] [µM] | MIC [20] [µM] | MIC [21] [µM] | MIC [22] [µM] | MIC [23] [µM] | also measured
1 | CC[C@H](C)[C@H](N)C(=O)NCC(=O)N[C@@H](CCCCN)C(=O)N[C@@H](Cc1ccccc1)C(=O)N[C@@H](CC(C)C)C(=O)N[C@@H](CCCCN)C(=O)N[C@@H](CCCCN)C(=O)N[C@@H](C)C(=O)N[C@@H](CCCCN)C(=O)N[C@@H](CCCCN)C(=O)N[C@@H](Cc1ccccc1)C(=O)NCC(=O)N[C@@H](CCCCN)C(=O)N[C@@H](C)C(=O)N[C@@H](Cc1ccccc1)C(=O)N[C@H](C(=O)N[C@@H](CCCCN)C(N)=O)C(C)C [IGKFLKKAKKFGKAFVK] | 2.92 (≈ 5.65 µg/mL) | > 264 | ≥ 264 | – | – | – | – | – | – | – | – | – | – | – | – | – | – | – | MIC [1]: 11.7 µM (≈ 22.6 µg/mL)
2 | C[C@H](NC(=O)[C@H](Cc1ccccc1)NC(=O)[C@H](CCCCN)NC(=O)[C@H](CCCCN)NC(=O)[C@H](C)NC(=O)[C@H](Cc1ccccc1)NC(=O)[C@H](CCCCN)NC(=O)[C@H](CCCCN)NC(=O)[C@H](C)NC(=O)[C@H](Cc1ccccc1)NC(=O)[C@H](CCCCN)NC(=O)[C@H](CCCCN)NC(=O)[C@H](C)NC(=O)[C@H](Cc1ccccc1)NC(=O)[C@@H](N)CCCCN)C(=O)N[C@@H](CCCCN)C(=O)O [KFAKKFAKKFAKKFAK] | – | – | ≥ 130 | – | – | – | – | – | – | – | – | – | – | – | – | – | – | – | MIC [5]: ≥ 65.2 µM; MIC [6]: 55.3 µM (≈ 106 µg/mL); MIC [7]: 3.62 µM (≈ 6.93 µg/mL); MIC [8]: ≥ 45.9 µM
3 | CC[C@H](C)[C@H](NC(=O)[C@H](CCCCN)NC(=O)[C@H](CCCCN)NC(=O)[C@H](Cc1ccccc1)NC(=O)[C@H](CC(C)C)NC(=O)[C@H](CCCCN)NC(=O)[C@@H](N)CCCCN)C(=O)N[C@@H](CC(C)C)C(=O)N[C@@H](CCCCN)C(=O)N[C@@H](Cc1ccc(O)cc1)C(=O)N[C@@H](CC(C)C)C(=O)N[C@@H](C)C(=O)NCC(=O)N1CCC[C@H]1C(=O)N[C@@H](C)C(=O)N[C@@H](CCCCN)C(=O)N[C@@H](Cc1ccccc1)C(=O)N[C@@H](CC(C)C)C(=O)N[C@@H](Cc1cnc[nH]1)C(=O)N[C@@H](CO)C(=O)N[C@@H](C)C(=O)N[C@@H](CCCCN)C(=O)O [KKLFKKILKYLAGPAKFLHSAK] | – | – | – | 1.77 (≈ 4.47 µg/mL) | 3.54 (≈ 8.95 µg/mL) | 3.54 (≈ 8.95 µg/mL) | – | – | – | – | – | – | – | – | – | – | – | – | –
4 | CC[C@H](C)[C@H](NC(=O)[C@H](CCCN=C(N)N)NC(=O)[C@H](C)NC(=O)[C@H](C)N)C(=O)N[C@H](C(=O)N[C@@H](CC(C)C)C(=O)N[C@@H](CCCN=C(N)N)C(=O)N1CCC[C@H]1C(=O)N[C@@H](CCCN=C(N)N)C(=O)N[C@@H](Cc1ccccc1)C(=O)N[C@@H](CCCN=C(N)N)C(N)=O)[C@@H](C)CC [AARIILRPRFR] | > 128 | > 128 | – | – | – | – | 16 (≈ 21.9 µg/mL) | 16 (≈ 21.9 µg/mL) | 16 (≈ 21.9 µg/mL) | ≥ 128 | 8 (≈ 10.9 µg/mL) | 16 (≈ 21.9 µg/mL) | > 128 | 16 (≈ 21.9 µg/mL) | ≥ 128 | ≥ 128 | > 128 | 8 (≈ 10.9 µg/mL) | MIC [24]: > 128 µM
5 | CC(C)C[C@H](NC(=O)[C@H](CCCCN)NC(=O)[C@H](CC(C)C)NC(=O)[C@H](CCCCN)NC(=O)[C@H](CC(C)C)NC(=O)[C@H](CCCCN)NC(=O)[C@H](CC(C)C)NC(=O)[C@H](CCCCN)NC(=O)[C@H](CC(C)C)NC(=O)[C@H](CCCCN)NC(=O)[C@H](CC(C)C)NC(=O)[C@H](CCCCN)NC(=O)[C@H](CC(C)C)NC(=O)[C@H](CCCCN)NC(=O)[C@H](CC(C)C)NC(=O)[C@H](CCCCN)NC(=O)[C@H](CC(C)C)NC(=O)[C@H](CCCCN)NC(=O)[C@H](CC(C)C)NC(=O)[C@H](CCCCN)NC(=O)[C@H](CC(C)C)NC(=O)[C@H](CCCCN)NC(=O)[C@@H](N)CC(C)C)C(=O)N[C@@H](CCCCN)C(=O)O [LKLKLKLKLKLKLKLKLKLKLKLK] | – | – | ≥ 85.8 | – | – | – | – | – | – | – | – | – | – | – | – | – | – | – | MIC [5]: 15.4 µM (≈ 45 µg/mL); MIC [6]: 121 µM (≈ 354 µg/mL); MIC [7]: 15.3 µM (≈ 44.5 µg/mL); MIC [8]: 30.2 µM (≈ 88 µg/mL)
6 | CC[C@H](C)[C@H](NC(=O)[C@H](CCCN=C(N)N)NC(=O)[C@H](C)NC(=O)[C@H](C)N)C(=O)N[C@H](C(=O)N[C@@H](CC(C)C)C(=O)N[C@@H](CCCN=C(N)N)C(=O)N[C@@H](Cc1ccc(O)cc1)C(=O)N[C@@H](CCCN=C(N)N)C(=O)N[C@@H](Cc1ccccc1)C(=O)N[C@@H](CCCN=C(N)N)C(N)=O)[C@@H](C)CC [AARIILRYRFR] | 16 (≈ 22.9 µg/mL) | 8 (≈ 11.5 µg/mL) | – | – | – | – | 8 (≈ 11.5 µg/mL) | 4 (≈ 5.74 µg/mL) | 4 (≈ 5.74 µg/mL) | ≥ 64 | 4 (≈ 5.74 µg/mL) | 4 (≈ 5.74 µg/mL) | 2 (≈ 2.87 µg/mL) | 4 (≈ 5.74 µg/mL) | ≥ 128 | 16 (≈ 22.9 µg/mL) | 4 (≈ 5.74 µg/mL) | 4 (≈ 5.74 µg/mL) | –
7 | CC[C@H](C)[C@H](NC(=O)[C@H](CCCCN)NC(=O)[C@H](CCCCN)NC(=O)[C@H](Cc1ccccc1)NC(=O)[C@H](CC(C)C)NC(=O)[C@H](CCCCN)NC(=O)[C@@H](N)CCCCN)C(=O)N[C@@H](CC(C)C)C(=O)N[C@@H](CCCCN)C(=O)N[C@@H](Cc1ccc(O)cc1)C(=O)N[C@@H](CC(C)C)C(=O)N[C@@H](CCCCN)C(=O)N[C@@H](Cc1ccccc1)C(=O)N[C@@H](CC(C)C)C(=O)N[C@@H](Cc1cnc[nH]1)C(=O)N[C@@H](CO)C(=O)N[C@@H](C)C(=O)N[C@@H](CCCCN)C(=O)N[C@@H](CCCCN)C(=O)N[C@@H](CC(=O)O)C(=O)N[C@@H](CCC(=O)O)C(=O)N[C@@H](CC(C)C)C(=O)O [KKLFKKILKYLKFLHSAKKDEL] | – | – | – | 1.77 (≈ 4.81 µg/mL) | 1.77 (≈ 4.81 µg/mL) | 3.54 (≈ 9.61 µg/mL) | – | – | – | – | – | – | – | – | – | – | – | – | –
8 | CC[C@H](C)[C@H](NC(=O)[C@H](CCCCN)NC(=O)[C@H](C)NC(=O)[C@H](C)N)C(=O)N[C@H](C(=O)N[C@@H](CC(C)C)C(=O)N[C@@H](CC(N)=O)C(=O)N1CCC[C@H]1C(=O)N[C@@H](CCCCN)C(=O)N[C@@H](Cc1ccccc1)C(=O)N[C@@H](CCCN=C(N)N)C(=O)N[C@H]1CSSC[C@@H](C(N)=O)NC(=O)[C@H](Cc2ccccc2)NC(=O)[C@H](C)NC(=O)[C@H](C)NC(=O)[C@H](CCCCN)NC1=O)[C@@H](C)CC [AAKIILNPKFRCKAAFC] | > 128 | 64 (≈ 121 µg/mL) | – | – | – | – | 64 (≈ 121 µg/mL) | ≥ 32 | ≥ 32 | ≥ 128 | ≥ 128 | ≥ 64 | > 128 | ≥ 128 | ≥ 128 | ≥ 128 | > 128 | ≥ 64 | MIC [24]: > 128 µM
9 | CC(C)C[C@H](NC(=O)[C@H](CCC(=O)O)NC(=O)[C@H](CC(=O)O)NC(=O)[C@H](CCCCN)NC(=O)[C@H](CC(C)C)NC(=O)[C@H](Cc1cnc[nH]1)NC(=O)[C@H](CCC(=O)O)NC(=O)[C@H](Cc1c[nH]c2ccccc12)NC(=O)[C@H](CC(=O)O)NC(=O)[C@H](CCCCN)NC(=O)[C@H](CC(C)C)NC(=O)[C@H](Cc1cnc[nH]1)NC(=O)[C@H](CCC(=O)O)NC(=O)[C@H](Cc1c[nH]c2ccccc12)NC(=O)[C@H](CC(=O)O)NC(=O)[C@H](CCCCN)NC(=O)[C@H](CC(C)C)NC(=O)[C@H](Cc1cnc[nH]1)NC(=O)[C@H](CCC(=O)O)NC(=O)[C@H](Cc1c[nH]c2ccccc12)NC(=O)[C@H](CC(=O)O)NC(=O)[C@@H](N)CCCCN)C(=O)O [KDWEHLKDWEHLKDWEHLKDEL] | – | – | – | ≥ 100 | ≥ 100 | ≥ 100 | – | – | – | – | – | – | – | – | – | – | – | – | –
10 | CC(C)C[C@H](NC(=O)[C@H](CCCCN)NC(=O)[C@@H](N)CCCN=C(N)N)C(=O)N[C@@H](C)C(=O)N[C@@H](Cc1ccccc1)C(=O)N[C@@H](CCCCN)C(=O)N1CCC[C@H]1C(=O)N[C@@H](CC(C)C)C(=O)N[C@@H](CCCCN)C(=O)N[C@@H](CCCCN)C(=O)N[C@@H](Cc1ccccc1)C(=O)N[C@@H](Cc1ccccc1)C(=O)N[C@@H](CO)C(=O)N[C@@H](Cc1c[nH]c2ccccc12)C(=O)N[C@@H](CCCCN)C(=O)N[C@@H](CO)C(=O)O [RKLAFKPLKKFFSWKS] | – | – | – | – | – | – | – | – | – | – | – | – | – | – | – | – | – | – | MIC [25]: 7.95 µM (≈ 16 µg/mL)
